One data set in a line: in vitro. To be noted: human, CC50, uninfected A549 cells, CellTiter-Glo.
The subject of data set [1] is Influenza strain A549 A/WSN/33 (H1N1). Description: microbe, parasite or virus in culture. The data set is classed as cell-based. To be noted: Influenza A virus, A549, 20 h, A549 cells, influenza A/WSN/33 (H1N1), 20 hours incubation; read-out: A549_A(H1N1) EC50.

As usually defined, the CC50 is the concentration giving 50% cytotoxicity. As usually defined, the EC50 is the concentration giving half of the maximal effect.

In the data set “in vitro”, `CS(=O)(=O)c1ccccc1[C@@H]1c2cccc(F)c2OC/C=C\CN2CN1n1ccc(=O)c(O)c1C2=O` (single isomer, unassigned) [Compound 122, (18*S,*Z)-4-fluoro-12-hydroxy-18-(2-(methylsulfonyl)phenyl)-6,9-dihydro-18H-10,17-methanobenzo[b]pyrido[1,2-f][1]oxa[5,6,9]triazacyclotridecine-11,13-dione] registered a CC50 greater than 200 nM. Besides, the EC50 in data set [1] was greater than 100 nM.

As to `CC[C@@H]1C/C=C/COc2c(F)cccc2[C@H](c2ccccc2)N2CN1C(=O)c1c(O)c(=O)ccn12` (single isomer, unassigned) [Compound 105BB, (2*S,9*R,*E)-9-ethyl-33-fluoro-15-hydroxy-2-phenyl-12,13,14,16-tetrahydro-11H-4-oxa-1(1,3)-pyrido[2,1-f][1,2,4]triazina-3(1,2)-benzenacyclononaphan-6-ene-14,16-dione], in “in vitro”, the CC50 was greater than 200 nM. The concentration giving a half-maximal response (EC50) in data set [1] was greater than 100 nM.

With `CC(C)[C@H]1/C=C/COc2c(ccc(F)c2F)[C@H](c2ccccc2)N2CN1C(=O)c1c(O)c(=O)ccn12` (single isomer, unassigned) [Compound 128BB], the CC50 in the data set “in vitro” is greater than 200 nM. For the same molecule, the EC50 in data set [1] is 3.9 nM.

As for `CC(C)[C@H]1/C=C/COc2c(ccc(F)c2F)[C@@H](c2ccccc2)N2CN1C(=O)c1c(O)c(=O)ccn12` (single isomer, unassigned) [Compound 128AB, (9*S,18*R,*E)-3,4-difluoro-12-hydroxy-9-isopropyl-18-phenyl-6,9-dihydro-18H-10,17-methanobenzo[b]pyrido[1,2-f][1]oxa[5,6,9]triazacyclotridecine-11,13-dione], the CC50 in “in vitro” is greater than 200 nM. For the same molecule, the concentration for a half-maximal effect (EC50) in data set [1] was 65 nM.

As for `Cc1cccc2c1OC/C=C\CN1CN([C@@H]2c2ccccc2)n2ccc(=O)c(O)c2C1=O` (single isomer, unassigned) [Compound 110B, (18*R,Z)-12-hydroxy-4-methyl-18-phenyl-6,9-dihydro-18H-10,17-methanobenzo[b]pyrido[1,2-f][1]oxa[5,6,9]triazacyclotridecine-11,13-dione], the CC50 in “in vitro” was greater than 200 nM. The EC50 in data set [1] was greater than 100 nM.

Molecule `O=C1c2c(O)c(=O)ccn2N2CN1C/C=C\COc1ccccc1[C@H]2c1ccc(F)cc1` (single isomer, unassigned) [Compound 47A, (18*R,Z)-18-(4-fluorophenyl)-12-hydroxy-6,9-dihydro-18H-10,17-methanobenzo[b]pyrido[1,2-f][1]oxa[5,6,9]triazacyclotridecine-11,13-dione] had a CC50 in “in vitro” greater than 2000 nM. In addition, in data set [1], the EC50 is greater than 1000 nM.

In the case of `O=C1c2c(O)c(=O)ccn2N2CN1C/C=C\COc1ccccc1[C@@H]2c1cccc(F)c1` (single isomer, unassigned) [Compound 63B, (18*S,Z)-18-(3-fluorophenyl)-12-hydroxy-6,9-dihydro-18H-10,17-methanobenzo[b]pyrido[1,2-f][1]oxa[5,6,9]triazacyclotridecine-11,13-dione], the CC50 in the data set “in vitro” was greater than 2000 nM. Besides, in data set [1], the EC50 was found to be 13 nM.

As for `CC[C@@H]1/C=C/COc2cc(Cl)ccc2[C@H](c2ccccc2)N2CN1C(=O)c1c(O)c(=O)ccn12` (single isomer, unassigned) [Compound 97BA], the CC50 in the data set “in vitro” is greater than 1000 nM. Besides, the EC50 in data set [1] was greater than 500 nM.

As for `O=C1c2c(O)c(=O)ccn2N2CN1C1(/C=C/COc3c(ccc(F)c3F)[C@H]2c2ccccc2)CC1` [Compound 102A, (18′R,E)-3′,4′-difluoro-12′-hydroxy-18′-phenyl-6′H,18′H-spiro[cyclopropane-1,9′-[10,17]methanobenzo[b]pyrido[1,2-f][1]oxa[5,6,9]triazacyclotridecine]-11′,13′-dione], the CC50 in the data set “in vitro” was greater than 100 nM. The EC50 in data set [1] amounted to 0.9 nM.

With `O=C1c2c(O)c(=O)ccn2N2CN1C/C=C/CCc1cc(F)c(F)cc1[C@H]2c1ccccn1` (single isomer, unassigned) [Compound 58B, (16*S,E)-13,14-difluoro-4-hydroxy-16-(pyridin-2-yl)-7,10,11,16-tetrahydro-6,17-methanobenzo[k]pyrido[1,2-b][1,2,5]triazacyclotridecine-3,5-dione], the half-maximal cytotoxic concentration (CC50) in the data set “in vitro” is greater than 2000 nM. In addition, the EC50 in data set [1] was greater than 1000 nM.

In the case of `O=C1c2c(O)c(=O)ccn2N2CN1C[C@H]1C[C@@H](COc3cccc4c3[C@@H]2c2ccccc2SC4)C1` (single isomer, unassigned) [Compound 161A], the CC50 in “in vitro” was greater than 100 nM. Also, the EC50 in data set [1] was greater than 50 nM.

For `CC[C@H]1/C=C/COc2c(F)cccc2[C@@H](c2ccccc2)N2CN1C(=O)c1c(O)c(=O)ccn12` (single isomer, unassigned) [Compound 85AA, (9*S,18*R,E)-9-ethyl-4-fluoro-12-hydroxy-18-phenyl-6,9-dihydro-18H-10,17-methanobenzo[b]pyrido[1,2-f][1]oxa[5,6,9]triazacyclotridecine-11,13-dione], in the data set “in vitro”, the CC50 was greater than 200 nM. Also, the EC50 in data set [1] amounted to 3 nM.

`CC[C@@H]1/C=C/COc2ccccc2[C@H](c2ccccc2)N2CN1C(=O)c1c(O)c(=O)ccn12` [Compound 39AA, (9R,18S,E)-9-ethyl-12-hydroxy-18-phenyl-6,9-dihydro-18H-10,17-methanobenzo[b]pyrido[1,2-f][1]oxa[5,6,9]triazacyclotridecine-11,13-dione] displayed a CC50 in the data set “in vitro” greater than 2000 nM. In addition, in data set [1], the EC50 is greater than 1000 nM.

`O=C1c2c(O)c(=O)ccn2N2CN1C1(/C=C/COc3c(F)cccc3[C@H]2c2ccccc2)CCC1` (single isomer, unassigned) [Compound 145A, (18′*R,E)-4′-fluoro-12′-hydroxy-18′-phenyl-6′H,18′H-spiro[cyclobutane-1,9′-[10,17]methanobenzo[b]pyrido[1,2-f][1]oxa[5,6,9]triazacyclotridecine]-11′,13′-dione] came in with a CC50 in the data set “in vitro” greater than 100 nM. Moreover, the EC50 in data set [1] was determined as 3.1 nM.

As for `O=C1c2c(O)c(=O)ccn2N2CN1C/C=C\COc1ccc(F)cc1[C@@H]2c1cccc(F)c1` (single isomer, unassigned) [Compound 25B, (18*S,Z)-2-fluoro-18-(3-fluorophenyl)-12-hydroxy-6,9-dihydro-18H-10,17-methanobenzo[b]pyrido[1,2-f][1]oxa[5,6,9]triazacyclotridecine-11,13-dione], the CC50 in the data set “in vitro” is greater than 2000 nM. Further, the EC50 in data set [1] worked out at 11 nM.

Molecule `O=C1c2c(O)c(=O)ccn2N2CN1CCC=CCc1ccccc1C2c1ccccc1` (stereo not drawn) [Compound 1, 4-hydroxy-16-phenyl-7,8,11,16-tetrahydro-6,17-methanobenzo[k]pyrido[1,2-b][1,2,5]triazacyclotridecine-3,5-dione] yielded a CC50 in the data set “in vitro” greater than 2000 nM. Moreover, in data set [1], the EC50 is 43 nM.

Consider `CC(C)[C@H]1/C=C/COc2c(F)cccc2[C@@H](c2ccccc2)N2CN1C(=O)c1c(O)c(=O)ccn12` (single isomer, unassigned) [Compound 124AA, (9*S,18*R,*E)-4-fluoro-12-hydroxy-9-isopropyl-18-phenyl-6,9-dihydro-18H-10,17-methanobenzo[b]pyrido[1,2-f][1]oxa[5,6,9]triazacyclotridecine-11,13-dione], for which, in “in vitro”, the CC50 was greater than 200 nM. Further, the 50% effective concentration (EC50) in data set [1] is greater than 100 nM.

In “in vitro”, `O=C1c2c(O)c(=O)ccn2N2CN1C/C=C/COc1c(F)cccc1[C@@H]2c1ccccc1C1CC1` [Compound 123B, (18S,E)-18-(2-cyclopropylphenyl)-4-fluoro-12-hydroxy-6,9-dihydro-18H-10,17-methanobenzo[b]pyrido[1,2-f][1]oxa[5,6,9]triazacyclotridecine-11,13-dione] showed a CC50 greater than 200 nM. Besides, the EC50 in data set [1] was greater than 100 nM.

Consider `O=C1c2c(O)c(=O)ccn2N2CN1C/C=C\COc1c(cccc1C(F)(F)F)[C@H]2c1ccccc1` (single isomer, unassigned) [Compound 130A, (18*R,Z)-12-hydroxy-18-phenyl-4-(trifluoromethyl)-6,9-dihydro-18H-10,17-methanobenzo[b]pyrido[1,2-f][1]oxa[5,6,9]triazacyclotridecine-11,13-dione], for which the CC50 in “in vitro” was greater than 200 nM. Besides, in data set [1], the EC50 came to 4.8 nM.

Consider `O=C1c2c(O)c(=O)ccn2N2CN1CC/C=C\COc1ccc(F)c3c1[C@H]2c1cccc(F)c1SC3` (single isomer, unassigned) [Compound 151B, (1*S,13*Z)-20,25-difluoro-7-hydroxy-16-oxa-23-thia-2,3,10-triazahexacyclo[15.12.1.12,10.03,8.021,30.024,29]hentriaconta-4,7,13,17,19,21(30),24(29),25,27-nonaene-6,9-dione], for which the CC50 in the data set “in vitro” was greater than 100 nM. In addition, the EC50 in data set [1] came to 4.4 nM.

As for `Cc1cccc2c1OC/C=C\CN1CN([C@H]2c2ccccc2)n2ccc(=O)c(O)c2C1=O` (single isomer, unassigned) [Compound 110A, (18*S,Z)-12-hydroxy-4-methyl-18-phenyl-6,9-dihydro-18H-10,17-methanobenzo[b]pyrido[1,2-f][1]oxa[5,6,9]triazacyclotridecine-11,13-dione], the CC50 in the data set “in vitro” is greater than 200 nM. The EC50 in data set [1] worked out at 6.4 nM.

`CC[C@H]1/C=C/COc2cc(Cl)ccc2[C@@H](c2ccccc2)N2CN1C(=O)c1c(O)c(=O)ccn12` (single isomer, unassigned) [Compound 97AB] came in with a CC50 in the data set “in vitro” greater than 1000 nM. In addition, the EC50 in data set [1] came out at 5.6 nM.

On to `CC(C)c1ccccc1[C@H]1c2ccc(F)c(F)c2OC/C=C\CN2CN1n1ccc(=O)c(O)c1C2=O` (single isomer, unassigned) [Compound 158A, (18*S,*Z)-3,4-difluoro-12-hydroxy-18-(2-isopropylphenyl)-6,9-dihydro-18H-10,17-methanobenzo[b]pyrido[1,2-f][1]oxa[5,6,9]triazacyclotridecine-11,13-dione], for which the CC50 in “in vitro” was greater than 100 nM. Further, in data set [1], the EC50 is greater than 50 nM.

With `O=C1c2c(O)c(=O)ccn2N2CN1C/C=C\COc1c(Cl)cccc1[C@H]2c1ccccc1` (single isomer, unassigned) [Compound 75A, (18*R,Z)-4-chloro-12-hydroxy-18-phenyl-6,9-dihydro-18H-10,17-methanobenzo[b]pyrido[1,2-f][1]oxa[5,6,9]triazacyclotridecine-11,13-dione], in the data set “in vitro”, the CC50 was greater than 2000 nM. In addition, in data set [1], the EC50 turned out to be 269 nM.

(Values after patent publication US11312727B1, “Macrocyclic flu endonuclease inhibitors” (Janssen BioPharma, Inc., priority 2018, dated 2022).)
